From patent US8163756B2 (priority 2004, dated 2012)

Assays:
Assay type in all cases: biochemical
KDR kinase = KDR kinase (Homo sapiens, UniProt P35968, DEL940-989/E990V); assay: KDR kinase assay K1 (pyruvate kinase/lactate dehydrogenase coupled, spectrophotometric); conditions: Method K1; read-out: KDR Data (IC50)
Protocol: (§1) IC50 values were calculated from a series of percent inhibition values determined at a range of inhibitor concentrations using software routines as implemented in the GraphPad Prism software package.

Abl kinase = molecular target: T1, Abl kinase (Homo sapiens, UniProt P00519); assay: Abl kinase assay A1 (pyruvate kinase/lactate dehydrogenase coupled, spectrophotometric); conditions: Method A1; read-out: Abl Data (IC50)
T1 sequence (P00519 229-512): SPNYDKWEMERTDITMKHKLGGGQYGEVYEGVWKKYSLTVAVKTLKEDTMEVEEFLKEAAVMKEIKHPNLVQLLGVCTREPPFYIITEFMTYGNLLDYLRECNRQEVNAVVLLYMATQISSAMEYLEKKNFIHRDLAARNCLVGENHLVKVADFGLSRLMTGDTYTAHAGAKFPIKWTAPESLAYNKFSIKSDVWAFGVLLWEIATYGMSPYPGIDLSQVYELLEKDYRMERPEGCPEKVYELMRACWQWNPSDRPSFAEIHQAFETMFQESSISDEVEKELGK
Protocol: as §1

B-Raf(V599E) kinase = B-Raf(V599E) kinase (Homo sapiens, UniProt P15056, V600E); assay: B-Raf(V599E) kinase assay B1 (construct 1, MEK1 substrate, coupled spectrophotometric)
Protocol: The test compounds were incubated with the reaction mixtureat 30° C. for 2 h. […] The reaction rate was calculated using the […] time frame. […] IC50 values were calculated from a series of percent inhibition values determined at a range of inhibitor concentrations using software routines as implemented in the GraphPad Prism software package.

[1] = molecular target: phosphorylated p-38-alpha kinase (Homo sapiens, UniProt Q16539); assay: P-38 alpha kinase assay P1 (coupled spectrophotometric, 2 h pre-incubation); conditions: method P1 (2 h pre-incubation); read-out: P-38 Data
Sequence of phosphorylated p-38-alpha kinase (Q16539 1-360 isoform Q16539-2): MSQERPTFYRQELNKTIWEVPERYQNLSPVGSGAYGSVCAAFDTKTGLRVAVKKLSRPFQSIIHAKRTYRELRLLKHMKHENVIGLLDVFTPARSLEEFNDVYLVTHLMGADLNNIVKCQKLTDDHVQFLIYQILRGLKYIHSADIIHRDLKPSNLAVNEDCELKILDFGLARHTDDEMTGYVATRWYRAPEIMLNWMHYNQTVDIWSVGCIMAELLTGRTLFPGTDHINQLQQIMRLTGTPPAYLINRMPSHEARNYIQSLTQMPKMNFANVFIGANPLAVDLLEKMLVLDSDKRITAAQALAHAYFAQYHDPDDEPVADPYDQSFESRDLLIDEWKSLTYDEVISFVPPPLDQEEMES

Sequence of KDR kinase (P35968 with tags, fused parts or gaps DEL940-989/E990V): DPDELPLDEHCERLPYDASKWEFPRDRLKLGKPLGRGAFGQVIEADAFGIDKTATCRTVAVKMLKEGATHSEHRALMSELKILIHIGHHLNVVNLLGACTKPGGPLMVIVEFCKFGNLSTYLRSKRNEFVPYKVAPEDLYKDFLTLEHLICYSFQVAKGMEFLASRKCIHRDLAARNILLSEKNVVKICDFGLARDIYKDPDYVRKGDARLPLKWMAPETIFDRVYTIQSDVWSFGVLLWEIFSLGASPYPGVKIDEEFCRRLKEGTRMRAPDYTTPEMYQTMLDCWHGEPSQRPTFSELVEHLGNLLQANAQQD
Sequence of B-Raf(V599E) kinase (P15056 with tags, fused parts or gaps V600E): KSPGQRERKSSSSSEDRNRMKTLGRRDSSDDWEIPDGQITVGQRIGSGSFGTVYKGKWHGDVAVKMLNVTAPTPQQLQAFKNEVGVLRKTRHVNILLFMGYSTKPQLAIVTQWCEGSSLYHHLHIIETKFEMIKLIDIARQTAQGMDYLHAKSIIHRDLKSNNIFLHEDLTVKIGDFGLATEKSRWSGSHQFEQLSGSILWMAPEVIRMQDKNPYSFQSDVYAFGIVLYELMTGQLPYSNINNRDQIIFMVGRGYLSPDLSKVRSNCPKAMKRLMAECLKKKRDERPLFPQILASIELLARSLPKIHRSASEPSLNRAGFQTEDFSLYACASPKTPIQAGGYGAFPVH

SMILES	IC50 (KDR kinase)	IC50 (Abl kinase)	IC50 (B-Raf(V599E) kinase)	IC50 [1]
CC(C)(C)c1cc(NC(=O)Nc2cccc(Cl)c2Cl)n(-c2ccc(CO)cc2)n1 [Example 19, 1-{3-t-butyl-1-[4-(hydroxymethyl)-phenyl]-1H-pyrazol-5-yl}-3-(2,3-dichlorophenyl)urea]	0.71 µM	0.62 µM	0.0048 µM	–
CC(C)(C)c1cc(NC(=O)Nc2cc(F)cc(F)c2F)n(-c2ccc3c(c2)CCN3S(C)(=O)=O)n1 [Example 109, 1-(3-t-butyl-1-(1-(methylsulfonyl)indolin-5-yl)-1H-pyrazol-5-yl)-3-(2,3,5-trifluorophenyl)urea]	0.038 µM	0.14 µM	0.0027 µM	–
COc1ccc(-n2nc(C(C)(C)C)cc2NC(=O)Nc2cccc(F)c2F)cc1 [Example 241, 1-[3-t-butyl-1-(4-methoxyphenyl)-1H-pyrazol-5-yl]-3-(2,3-difluorophenyl)urea]	0.57 µM	–	0.024 µM	0.22 µM
CC(C)(C)c1cc(NC(=O)Nc2cccc(Cl)c2Cl)n(-c2cccc(C(C)(C)O)c2)n1 [Example 2, 1-{3-t-butyl-1-[3-(2-hydroxypropan-2-yl)phenyl]-1H-pyrazol-5-yl}-3-(2,3-dichlorophenyl)urea]	0.46 µM	2 µM	0.019 µM	–
CC(C)(C)c1cc(NC(=O)Nc2cccc(Oc3ccccc3)c2)n(-c2ccc3c(c2)CCNC3)n1 [Example 140, 1-(3-t-butyl-1-(1,2,3,4-tetrahydro-isoquinolin-6-yl)-1H-pyrazol-5-yl)-3-(3-phenoxyphenyl)urea]	2.3 µM	0.12 µM	0.0046 µM	–
CC(C)(C)c1cc(NC(=O)Nc2cccc(Cl)c2Cl)n(-c2cccc(C(=N)NO)c2)n1 [Example 43, 1-{1-[3-(N-hydroxycarbamimidoyl)phenyl]-3-t-butyl-1H-pyrazol-5-yl}-3-(2,3-dichlorophenyl)-urea]	0.36 µM	–	0.0043 µM	0.013 µM
CC1(O)CCN(C(=O)Cc2ccc(-n3nc(C(C)(C)C)cc3NC(=O)Nc3cccc(Cl)c3Cl)cc2)CC1 [Example 496, 1-(3-t-butyl-1-{4-[2-(4-hydroxy-4-methylpiperidin-1-yl)-2-oxoethyl]phenyl}-1H-pyrazol-5-yl)-3-(2,3-dichlorophenyl)urea]	0.47 µM	–	0.026 µM	0.005 µM
CC(=O)N1CCc2ccc(-n3nc(C(C)(C)C)cc3NC(=O)Nc3cccc(Cl)c3Cl)cc2C1 [Example 126, 1-[1-(2-acetyl-1,2,3,4-tetrahydroisoquinolin-7-yl)-3-t-butyl-1H-pyrazol-5-yl]-3-(2,3-dichlorophenyl)urea]	0.21 µM	0.44 µM	0.0065 µM	0.01 µM
CC(C)(C)c1cc(NC(=O)Nc2cccc(Cl)c2Cl)n(-c2cccc(CN)c2)n1 [Example 42, 1-{1-[3-(aminomethyl)phenyl]-3-t-butyl-1H-pyrazol-5-yl}-3-(2,3-dichloro-phenyl)urea]	0.36 µM	1.5 µM	0.01 µM	–
CCOC(=O)CCc1cccc(-n2nc(C(C)(C)C)cc2NC(=O)Nc2cccc(Cl)c2Cl)c1 [Example 264, 3-(3-{3-t-butyl-5-[3-(2,3-dichlorophenyl)ureido]-1H-pyrazol-1-yl}phenyl)propionic acid ethyl ester]	0.14 µM	–	0.0073 µM	0.082 µM
CNC(=O)[C@@H]1Cc2ccc(-n3nc(C(C)(C)C)cc3NC(=O)Nc3cccc(Cl)c3Cl)cc2CN1 [Example 187, 1-(3-t-butyl-1-((3S)-3-(methylcarbamoyl)-1,2,3,4-tetrahydroisoquinolin-7-yl)-1H-pyrazol-5-yl)-3 (2,3-dichlorophenyl)urea]	0.15 µM	0.56 µM	0.003 µM	–
CC(C)(C)c1cc(NC(=O)Nc2cccc(Cl)c2Cl)n(-c2ccc3c(c2)C(=O)NCC3)n1 [Example 122, 1-[3-t-butyl-1-(1-oxo-1,2,3,4-tetrahydroisoquinolin-7-yl)-1H-pyrazol-5-yl]-3-(2,3-di-chlorophenyl)urea]	1.4 µM	2.8 µM	0.011 µM	0.13 µM
CC(Cc1cccc(-n2nc(C(C)(C)C)cc2NC(=O)Nc2cccc(Cl)c2Cl)c1)C(=O)O (stereo not drawn) [Example 267, 3-(3-{3-t-butyl-5-[3-(2,3-dichlorophenyl)ureido]-1H-pyrazol-1-yl}-phenyl)-2-methylpropanoic acid]	0.55 µM	–	0.0079 µM	0.012 µM
CC(C)(C)c1cc(NC(=O)Nc2cccc(Cl)c2Cl)n(-c2ccc3c(c2)C[C@@H](C(=O)O)NC3)n1 [Example 186, (3S)-6-(3-t-butyl-5-(3-(2,3-dichlorophenyl)ureido)-1H-pyrazol-1-yl)-1,2,3,4-tetrahydroisoquinoline-3-carboxylic acid]	0.9 µM	0.06 µM	0.0092 µM	0.05 µM
CC(C)(C)c1cc(NC(=O)Nc2cccc(Cl)c2Cl)n(-c2ccc3c(c2)NCC3)n1 [Example 112, 1-(3-t-butyl-1-(indolin-6-yl)-1H-pyrazol-5-yl)-3-(2,3-dichlorophenyl)urea]	0.21 µM	0.48 µM	0.0029 µM	0.012 µM
CC(C)(C)c1cc(NC(=O)Nc2cccc(Cl)c2Cl)n(-c2cc(CN)c3ccccc3c2)n1 [Example 69, 1-[1-(4-(aminomethyl)naphthalen-2-yl)-3-t-butyl-1H-pyrazol-5-yl]-3-(2,3-dichlorophenyl)urea]	0.4 µM	0.14 µM	0.0042 µM	0.11 µM
COc1cccc(-n2nc(C(C)(C)C)cc2NC(=O)Nc2cccc(Cl)c2Cl)c1 [Example 15, 1-(3-t-butyl-1-(3-methoxyphenyl)-1H-pyrazol-5-yl)-3-(2,3-dichlorophenyl)urea]	0.081 µM	0.39 µM	0.0033 µM	–
CN(C)CCc1cccc(-n2nc(C(C)(C)C)cc2NC(=O)Nc2cccc(Cl)c2Cl)c1 [Example 40, 1-(3-t-butyl-1-{3-[2-(dimethylamino)ethyl]phenyl}-1H-pyrazol-5-yl)-3-(2,3-di-chlorophenyl)urea]	0.47 µM	0.57 µM	0.0087 µM	–
CC(C)(C)c1cc(NC(=O)Nc2cccc(Cl)c2Cl)n(-c2ccc(CC(=O)O)cc2)n1 [Example 383]	0.28 µM	–	0.0081 µM	0.007 µM
CC(C)(C)c1cc(NC(=O)Nc2cccc(Cl)c2Cl)n(-c2ccc3c(c2)CCN(S(C)(=O)=O)CC3)n1 [Example 336, 1-(3-t-butyl-1-(3-(methylsulfonyl)-2,3,4,5-tetrahydro-1H-benzo[d]azepin-7-yl)-1 H-pyrazol-5-yl)-3-(2,3-dichlorophenyl)urea]	0.17 µM	–	0.002 µM	0.011 µM
CC(C)(C)c1cc(NC(=O)Nc2ccc(Oc3ccccc3)cc2)n(-c2ccc3c(c2)CCNC3)n1 [Example 143, 1-(3-t-butyl-1-(1,2,3,4-tetrahydroiso-quinolin-6-yl)-1H-pyrazol-5-yl)-3-(4-phenoxyphenyl)-urea]	0.94 µM	0.25 µM	0.014 µM	–
CC(C)(C)c1cc(NC(=O)Nc2cccc(Cl)c2Cl)n(-c2cccc(Cn3c(=O)[nH]n(-c4ccccc4)c3=O)c2)n1 [Example 273, 1-(3-t-butyl-1-{3-[(3,5-dioxo-1-phenyl-1,2,4-triazolidin-4-yl)methyl]phenyl}-1H-pyrazol-5-yl)-3-(2,3-dichlorophenyl)urea]	1.7 µM	–	0.0087 µM	0.034 µM
CC(C)(C)c1cc(NC(=O)Nc2cccc(Cl)c2Cl)n(-c2ccc3c(c2)CCN3)n1 [Example 106, 1-(3-t-butyl-1-(indolin-5-yl)-1H-pyrazol-5-yl)-3-(2,3-dichlorophenyl)urea]	0.12 µM	–	0.0036 µM	0.012 µM
CC(C)(C)c1cc(NC(=O)Nc2ccc(Cl)cc2)n(-c2cc(CO)c3ccccc3c2)n1 [Example 61]	1.5 µM	0.81 µM	0.018 µM	–
CC(C)(C)c1cc(NC(=O)Nc2cccc(Cl)c2Cl)n(-c2cccc(C#N)c2)n1 [Example 9]	0.047 µM	0.18 µM	0.0046 µM	–
CC(C)(C)c1cc(NC(=O)Nc2cccc(Cl)c2Cl)n(-c2ccc3c(c2)CN(C(=N)N)CC3)n1 [Example 130, 1-[3-t-butyl-1-(2-carbamimidoyl-1,2,3,4-tetrahydroisoquinolin-7-yl)-1H-pyrazol-5-yl]-3-(2,3-dichlorophenyl)urea]	0.32 µM	0.23 µM	–	–
CC(C)(C)c1cc(NC(=O)Nc2cccc(Cl)c2Cl)n(-c2ccc3c(c2)CCN3S(=O)(=O)C(F)(F)F)n1 [Example 201, 1-(3-t-butyl-1-(1-(trifluoromethylsulfonyl)indolin-5-yl)-1H-pyrazol-5-yl)-3-(2,3-dichlorophenyl)urea]	0.13 µM	–	–	0.15 µM
CC(C)(C)c1cc(NC(=O)Nc2cccc(Cl)c2Cl)n(-c2cccc(CCN)c2)n1 [Example 39, 1-{1-[3-(2-aminoethyl)phenyl]-3-t-butyl-1H-pyrazol-5-yl}-3-(2,3-dichlorophenyl)urea]	0.24 µM	0.35 µM	0.0071 µM	–
